From patent publication US20240245714A1, “COMPOSITION AND METHODS USING COMBINATION OF NARH AND NR TO PRODUCE INTRACELLULAR NICOTINAMIDE ADENINE DINUCLEOTIDE (NAD+)” (SOCIETE DES PRODUITS NESTLE S.A., priority 2021, published 2024)

Key:
MEF cells = assay: NAD+ induction in MEF cells; assay type: cell-based; details: MEF mouse fibroblast, 2 hours, NARH and NR 0.5 mM
Procedure: (§1) MEF cells were treated with dihydronicotinic acid riboside (NARH) and nicotinamide riboside (NR), alone or in combination for 2 hours. NARH and NR were used at the concentration of 0.5 mM. After treatment, cells were trypsinized and collected for NAD+ and protein content measurements. NAD+ was extracted and quantified using an EnzyChrom NAD/NADH Assay Kit (BioAssay Systems; #E2ND-100) according to the manufacturer's instructions. Proteins were quantified with BCA Protein Assay Kit (Pierce™; #23225). All results are expressed as mean+/−SD of n=2. NARH vs control P=0.7581; NR vs control P=0.5337; NRH+NR vs control P=0.0002.
MEF cells were treated with dihydronicotinic acid riboside (NARH) and nicotinamide riboside (NR), alone or in combination for 2 hours. NARH and NR were used at the concentration of 0.5 mM. After treatment, cells were trypsinized and collected for NAD+ and protein content measurements. NAD+ was extracted and quantified using an EnzyChrom NAD/NADH Assay Kit (BioAssay Systems; #E2ND-100) according to the manufacturer's instructions. Proteins were quantified with BCA Protein Assay Kit (Pierce™; #23225).

RAW 264.7 cells = assay: NAD+ induction in RAW 264.7 cells; assay type: cell-based; details: RAW 264.7 mouse macrophages, 2 hours, NARH and NR 0.5 mM
Procedure: as §1, with “RAW 264.7” for “MEF”, “scraped” for “trypsinized”, “n=2-4.” for “n=2.”, “P=0.8130;” for “P=0.7581;”, “P=0.0788;” for “P=0.5337;”, “P=0.0087.” for “P=0.0002.”
RAW 264.7 cells were treated with dihydronicotinic acid riboside (NARH) and nicotinamide riboside (NR), alone or in combination for 2 hours. NARH and NR were used at the concentration of 0.5 mM. After treatment, cells were scraped and collected for NAD+ and protein content measurements. NAD+ was extracted and quantified using an EnzyChrom NAD/NADH Assay Kit (BioAssay Systems; #E2ND-100) according to the manufacturer's instructions. Proteins were quantified with BCA Protein Assay Kit (Pierce™; #23225).

Compound	NAD+ induction (MEF cells)	NAD+ induction (RAW 264.7 cells)
O=C(O)C1=CN([C@@H]2O[C@H](CO)[C@@H](O)[C@@H]2O)C=CC1 [NARH, dihydronicotinic acid riboside]	not NARH or NR alone, induces NAD+	not NARH or NR alone, induces NAD+
NC(=O)c1ccc[n+]([C@@H]2O[C@H](CO)[C@@H](O)[C@H]2O)c1 [NR, nicotinamide riboside]	not NARH or NR alone, induces NAD+	not NARH or NR alone, induces NAD+
